Results as given in patent publication EP0414894A1 (priority 1989, dated 1990).
Values joined by “and” are separate entries in the source; they are usually repeats but may differ in a detail not shown here. Equal entries are not always repeated. Where two headings read alike, the source gives them in different places.

Assays:
Candida Tropi-calis [1] = assay: fungicidal activity, laboratory test on Sabouraud medium; assay type: cell-based, Candida tropicalis; conditions: 0.01% solution in water
Method: (§1) A fungicidal composition based on this compound was prepared, which was a 0.01% solution of the compound in water. […] For testing it the Petri dishes containing Sabourand growth medium were inoculated by using suspension of microorganisms containing 5x10⁷ cells of fungi in 1 ml.
(§2) The restricted surface areas (7 mm in diameter) were coated with the composition by means of a small metal spatula 4x4 mm in size. In a day of incubating it at 37°C in the thermostat the composition inhibited the growth of yeast-like fungi. An antifungal activity of the composition was specified according to the method of 10-fold serial dilution using Sabourand's liquid medium in 2 ml of which 2x10⁵ cells were introduced.

Candida Tropi-calis [2] = assay: fungicidal activity, large-scale test on surfaces of articles; assay type: cell-based, Candida tropicalis; conditions: 0.01% solution in water
Method: (§3) The large-scale tests were carried out by using Candida albicans and Candida tropicalis strains, with their 2-day agar culture being diluted with an isotonic sodium chloride solution up to the concentration of 5x10⁷ cells in 1 ml. The culture suspension was laid on the surface (7 mm in diameter) of articles made of ceramics, metal, wood and rubber as well as a cotton, flannel and woollen cloth which were presterilized.
(§4) In a day after incubation from the treated areas washings were taken with a cotton-gauze tampon which was moistened with Sabouraud's liquid medium, then they were immersed into the tubes containing a similar medium, and placed into thermostat at 37°C for 2 days. Thereafter, the inoculum was transfered onto a solified Sabouraud agar, and the values of growth were recorded according to a conventional procedure. The test data of the composition according to the invention over a known composition (zineb) and the control are given in Table 3.

domestic flies [3] = assay: insecticidal activity, laboratory test in gauze boxes; assay type: in vivo; conditions: for Death of flies, % Tests in laboratory: 2% solution in 5% aqueous glucose, observed in 48-72 hours
Method: The compound obtained was used for preparing an insecticidal composition which was a 2% solution of the compound in a 5% aqueous solution of glucose. The test for activity of the insecticidal composition of the invention was conducted on domestic flies. Into gause 10x10 cm boxes /6 boxes/ 6-7-day flies were placed in the number of 50 individuals per box, which were of both sexes. The Petri dishes containing the insecticidal composition of the invention were put into 5 boxes. The observations for fly death were carried out in 48-72 hours. The Petri dish containing a 5% aqueous glucose solution were placed into a control box.

domestic flies [4] = assay: insecticidal activity, full-scale (large-scale) test in premises; assay type: in vivo; conditions: 2% solution, 2-3 dishes per 20 m²; 72 hours
Method: The full-scale tests for activity of the insecticidal composition of the invention to domestic flies in habitable and industrial premises were carried out as follows. The Petri dishes containing a 2% solution of the insecticidal composition of the invention were located according 2-3-dishes per 20 m². The composition activity was evaluated by a direct estimation of killed insects in 72 hours or by using an adhesive tape to count the number of flies on its surface prior to and after conducting the test.

Candida albicans [5] = assay: fungicidal activity, laboratory test on Sabouraud medium; assay type: cell-based; conditions: 0.01% solution in water
Method: as §1, §2

Candida albicans [6] = assay: fungicidal activity, large-scale test on surfaces of articles; assay type: cell-based; conditions: 0.01% solution in water
Method: as §3, §4

pig ascarid eggs = assay: microbe, parasite or virus in culture
Influenza A viruses = assay: virulicidal activity, virus titer in allantoic fluid by hemagglutination-inhibition
Meningopneumonia virus = test system: Meningopneumonia virus; parameters: species or system meningopneumonia pathogene/MP strain/
Hepatitis B virus = assay: virulicidal activity, HBsAg titer in blood serum
Source text: table ratio instead of the test composition.

Staphylococcus aureus = assay: microbe, parasite or virus in culture; assay type: cell-based; conditions: Staphylococcus aureus; for killing at 0.5 %: read-out: Death of micro-organisms, % Staphylo-cocus aureus
Escherichia coli = assay: microbe, parasite or virus in culture; assay type: cell-based; conditions: Escherichia coli; for killing at 0.5 %: read-out: Death of micro-organisms, % Escherichia coli
[7] = 24 h, read-out: Death of ascaridal eggs, % after 24 hours
[8] = 48 h, read-out: Death of ascaridal eggs, % after 48 hours

| SMILES | Growth inhibition of fungal colonies, % Candida Tropi-calis Laboratory tests (Candida Tropi-calis [1]) | Growth inhibition of fungal colonies, % Candida Tropi-calis Large-scale tests (Candida Tropi-calis [2]) | Death of flies, % Tests in laboratory (domestic flies [3]) | Death of flies, % Tests in large-scale (domestic flies [4]) | Growth inhibition of fungal colonies, % Candida albicans Laboratory tests (Candida albicans [5]) | Growth inhibition of fungal colonies, % Candida albicans Large-scale tests (Candida albicans [6]) | killing at 2 % (pig ascarid eggs; [7]) | killing at 2 % (pig ascarid eggs; [8]) | Virulicidal activity (%) under exposure 30 min (Influenza A viruses; concentration 1.0 % by mass) | Virulicidal activity (%) under exposure 30 min (Influenza A viruses; concentration 2.0 % by mass) | further results |
| --- | --- | --- | --- | --- | --- | --- | --- | --- | --- | --- | --- |
| COP(=NC(CO)C(O)c1ccc([N+](=O)[O-])cc1)(OC)OC (centres unmarked) [Example 1, trimethoxyphosphazo-1-para-nitrophenyl-1,3-propandiol] | 100.0% | 100.0% | 89.1% | 87.0% | 100.0% | 100.0% | – | – | – | – | – |
| CCOP(=NC(CO)C(O)c1ccc([N+](=O)[O-])cc1)(OCC)OCC (centres unmarked) [Example 2, triethoxyphosphazo-1-para-nitrophenyl-1,3-propandiol] | 100.0% | 100.0% | 84.7% | 83.0% | 100.0% | 100.0% | – | – | – | – | – |
| CCCOP(=NC(CCl)C(O)c1ccc([N+](=O)[O-])cc1)(OCCC)OCCC (centres unmarked) [Example 5, tri-n-propoxyphosphazo-1-para-nitrophenyl-1-chloro-3-propanol] | – | – | 94.5% | 93.0% | – | – | 100% | 100% | 12.5% | 50.0% | Virulicidal activity (%) under exposure 60 min (Influenza A viruses; concentration 1.0 % by mass): 50.0%; Virulicidal activity (%) under exposure 60 min (Influenza A viruses; concentration 2.0 % by mass): 75.0%; Virulicidal activity (%) under exposure 60 min (Meningopneumonia virus): 50.0% and 75.0%; Virulicidal activity (%) under exposure 30 min (Hepatitis B virus; concentration 1.0 % by mass): 12.5%; Virulicidal activity (%) under exposure 60 min (Hepatitis B virus; concentration 1.0 % by mass): 50.0%; Virulicidal activity (%) under exposure 30 min (Hepatitis B virus; concentration 2.0 % by mass): 25,0%; Virulicidal activity (%) under exposure 60 min (Hepatitis B virus; concentration 2.0 % by mass): 75,0% |
| COP(=NC(CCl)C(Cl)c1ccc([N+](=O)[O-])cc1)(OC)OC (centres unmarked) [Example 9, trimethoxyphosphazo-1-para-nitrophenyl-1,3-dichloropropane] | 100.0% | 100.0% | 85.2% | 83.0% | 100.0% | 100.0% | – | – | – | – | killing at 0.5 % (Staphylococcus aureus): 100%; killing at 0.5 % (Escherichia coli): 100% |
| CCOP(=NC(CCl)C(Cl)c1ccc([N+](=O)[O-])cc1)(OCC)OCC (centres unmarked) [Example 10, triethoxyphosphazo-1-para-nitrophenyl-1,3-dichloropropane] | 100.0% | 100.0% | 89.9% | 88.0% | 100.0% | 100.0% | – | – | – | – | killing at 0.5 % (Staphylococcus aureus): 99.8%; killing at 0.5 % (Escherichia coli): 100% |
| COP(=NC(CCl)C(O)c1ccc([N+](=O)[O-])cc1)(OC)OC (centres unmarked) [Example 15] | 100.0% | 100.0% | – | – | 100.0% | 100.0% | – | – | – | – | – |
| CCOP(=NC(CCl)C(O)c1ccc([N+](=O)[O-])cc1)(OCC)OCC (centres unmarked) [Example 16, triethoxy-phosphazo-1-para-nitrophenyl-1-chloro-3-propanol] | 100.0% | 100.0% | – | – | 100.0% | 100.0% | – | – | 50.0% | 98.4% | Virulicidal activity (%) under exposure 60 min (Influenza A viruses; concentration 1.0 % by mass): 75.0%; Virulicidal activity (%) under exposure 60 min (Influenza A viruses; concentration 2.0 % by mass): 100.0%; Virulicidal activity (%) under exposure 30 min (Meningopneumonia virus): 25.0% and 50.0%; Virulicidal activity (%) under exposure 60 min (Meningopneumonia virus): 50.0% and 99.0%; Virulicidal activity (%) under exposure 30 min (Hepatitis B virus; concentration 1.0 % by mass): 50.0%; Virulicidal activity (%) under exposure 60 min (Hepatitis B virus; concentration 1.0 % by mass): 75.0%; Virulicidal activity (%) under exposure 30 min (Hepatitis B virus; concentration 2.0 % by mass): 100,0%; Virulicidal activity (%) under exposure 60 min (Hepatitis B virus; concentration 2.0 % by mass): 100,0% |
| O=C(N[C@H](COP(=N[C@@H](CO)[C@@H](O)c1ccc([N+](=O)[O-])cc1)(OC[C@@H](NC(=O)C(Cl)Cl)[C@H](O)c1ccc([N+](=O)[O-])cc1)OC[C@@H](NC(=O)C(Cl)Cl)[C@H](O)c1ccc([N+](=O)[O-])cc1)[C@H](O)c1ccc([N+](=O)[O-])cc1)C(Cl)Cl [Example 27] | – | – | – | – | – | – | 100% | 100% | 100.0% | 100.0% | Death of flies, % after 48 hours (domestic flies [3]; concentration 2.0 % by mass, after 48 hours): 34.0%; Death of flies, % after 72 hours (domestic flies [3]; concentration 2.0 % by mass, after 72 hours): 62.0% |
| O=[N+]([O-])c1ccc(C(O)C(CO)N=P(Nc2ccccc2)(Nc2ccccc2)Nc2ccccc2)cc1 (centres unmarked) [Example 29, trianilidophosphazo-1-para-nitrophenyl-1,3-propanediol] | – | – | – | – | – | – | 97.6% | 100% | – | – | – |
| CNC(=S)S [carbathione, dihydrate, reference compound] | – | – | – | – | – | – | 60% | 80% | – | – | – |
| O=S(=O)(NCl)c1ccccc1 [sodium N-chlorobenzenesulfamide, reference compound] | – | – | – | – | – | – | – | – | 12.5% and 22.0% | 25.0% and 25.1% | Virulicidal activity (%) to poliomyelitis virus under exposure of 30 min (poliomyelitis virus; concentration 1.0 % by mass): 9.0%; Virulicidal activity (%) to poliomyelitis virus under exposure of 60 min (poliomyelitis virus; concentration 1.0 % by mass): 25.0%; Virulicidal activity (%) to poliomyelitis virus under exposure of 30 min (poliomyelitis virus; concentration 2.0 % by mass): 12.5%; Virulicidal activity (%) to poliomyelitis virus under exposure of 60 min (poliomyelitis virus; concentration 2.0 % by mass): 50.0%; Virulicidal activity (%) under exposure 60 min (Influenza A viruses; concentration 1.0 % by mass): 25.0%; Virulicidal activity (%) under exposure 60 min (Influenza A viruses; concentration 2.0 % by mass): 50.0%; killing at 0.2 % (Staphylococcus aureus; read-out: Death of micro-organisms, % S.aureus): 90%; killing at 0.5 % (Staphylococcus aureus): 100%; Virulicidal activity (%) under exposure 60 min (Meningopneumonia virus): 25.0% and 50.0%; Virulicidal activity (%) under exposure 30 min (Hepatitis B virus; concentration 1.0 % by mass): 9.0%; Virulicidal activity (%) under exposure 60 min (Hepatitis B virus; concentration 1.0 % by mass): 25.0%; Virulicidal activity (%) under exposure 30 min (Hepatitis B virus; concentration 2.0 % by mass): 12.5%; Virulicidal activity (%) under exposure 60 min (Hepatitis B virus; concentration 2.0 % by mass): 50.0%; killing at 0.2 % (Escherichia coli; read-out: Death of micro-organisms, % E.coli): 100%; killing at 0.5 % (Escherichia coli): 100% |
